# Experimental data: patent publication EP3016671B1, “ACTIVELY T[…] PROTEASE-RESISTANT PEPTIDES AS BBB SHUTTLES AND SHUTTLE-CARGO CONSTRUCTS” (Universitat de Barcelona, priority 2013, dated 2015)
# Positions of bridges follow the written chain, without caps; N, C: chain ends. Non-standard residues stand in square brackets, D forms with d. Residues, ends and D or L forms follow the SMILES beside them. Dap = NC[C@H](N)C(=O)O
# Columns and labels:
# mice [1] = conditions: amount in 200 µL injected; cited from earlier work
# [2] = Transport across the BBB, in vitro bovine cell assay (co-culture, transwell); conditions: pH 7.4
# Description: (§1) The evaluation method chosen to test the compounds of formula (I) and (II) of the invention was a cell-based assay consisting of a co-culture of brain endothelial cells and astrocytes, which allows to evaluate or to predict the transport of compounds through the BBB. The co-culture method used was described by Gaillard and de Boer in 2008 (Gaillard, PJ et al. "2B-Trans technology: targeted drug delivery across the blood-brain barrier" Methods Mol Biol 2008, vol. 437 pp. 161-175) and consists in seeding of rat astrocytes in a side of a polycarbonate filter (transwell) and bovine brain endothelial cells on the other side of the filter. Under these conditions endothelial cells are able to reach the confluence mimicking the BBB. […] Is commonly used model for permeation studies and toxicity of compounds across the BBB.
# (§2) The co-culture assay was used to determine the capacity of the constructs cargo-shuttle to cross the BBB. The apparent permeability of the compounds was measured in triplicate at a concentration of 200 µ M for Examples 1, 2, 3, 5, 10, 13, 15, 16, 17 and 19 and at a concentration of 1.75 µM for Example 21. All the assays were performed with transendothelial electrical resistance values equal or higher than 100 Ω · cm^2 and were carried out in the presence of lucifer yellow to assess the integrity of the cell membrane during the test. The permeability tests were performed in Ringer-HEPES buffer at pH 7.4. The compound of interest was dissolved in the buffer to the desired concentration.
# (§3) Once the endothelial cells were confluent on the filters (transwells) these were washed with Ringer-HEPES buffer. The acceptor well was filled with 800 µ L of Ringer-HEPES buffer and the donor well with 200 µL of the solution of the compound to be studied. The system was incubated at 37 °C and 5% CO2 for 2 h. After that time the content of the acceptor and donor compartments were analyzed by HPLC-UV, direct ELISA or fluorescence (depending on cargo anchored to the shuttle). […] The apparent permeability was calculated using the following equation: Papp = (dQ/dt) * (1/A) * (1/CO) (cm/s), where (dQ/dt) is the amount of compound present in the compartment acceptor function of time (nmol/s). A is the area of the filter(cm2) and CO is the initial concentration of the compound applied in the donor compartment (nmol/mL).
# [3] = system: bovine brain endothelial cells; experiment: as above; conditions: bovine cell model, 2 h, 37 °C, Ringer-HEPES pH 7.4; 200 µM (Example 21: 1.75 µM)
# Description: as §1, §2, §3
# mice [4] = experiment: Acute toxicity (lethality) after intracaudal injection in mice; assay type: in vivo, Swiss white mice; conditions: six mice, observed up to 24 hours
# Experimental: (§4) • 1) In zebra fish: The assay was performed by Neuron Bio (Granada). The protocol was based on the assessment of the acute toxicity of substances on zebra fish (Danio rerio) using a static method. This short-term toxicity assay method replicated the guidelines of the document OECD Draft Guideline for the study of chemicals, Fish Embryo Toxicity (FET) Test (30 May, 2006). 5 concentrations were evaluated (4.6, 10, 22, 46 and 100 mg/L) in water containing 0.1% DMSO. A control group (vehicle: water and 0.1 % DMSO) and a group with 3,4-dicloroaniline were set up to make sure test conditions were reproducible. […] Apamin (SEQ ID NO:16) was dissolved in phosphate buffer saline (vehicle) so that 200 µL would contain 50 nmol of this peptide (corresponding to its LD50). Compound with SEQ ID NO:9 was dissolved in the same buffer so that 200 µL would contain 1200 nmol of this peptide (near the solubility limit). A first group of six mice (male, 20±2 g, Swiss white mice) were injected with 200 µL of apamin. A second group of six mice were injected with 200 µL of compound with SEQ ID NO:9. A third group of mice were injected with 200 µL of vehicle.
# zebra fish (Danio rerio) = experiment: Acute toxicity in zebra fish, Fish Embryo Toxicity (FET) test; assay type: in vivo; conditions: static method, 4.6, 10, 22, 46 and 100 mg/L in water containing 0.1% DMSO
# Experimental: as §4
# [5] = PAMPA assay (passive diffusion); assay type: in vitro ADME; conditions: 400 µM, pH 7.4, 4 h, 20°C, four replicates
# Experimental: The buffer was prepared from the concentrated solution by plON, following the manufacturer's instructions. The pH was adjusted to 7.4 using a solution of 0.5 M NaOH. The PAMPA sandwich was separated, and the donor well was filled with 195 µL of the compound with SEQ ID NO 9 (400 µM) solution and a stirring magnet was added. The acceptor plate was then placed into the donor plate. Next, 4 µL of the 20 mg/mL phospholipid mixture (PBLEP) in dodecane was added to the filter of each well, and 200 µL of buffer solution was added to each acceptor well. The plate was then covered. Four replicates were performed for each compound. The PAMPA plate was incubated for 4 h at 20°C and under saturated atmosphere in a GUT-BOXTM apparatus under an agitation vigorous enough to reduce the unstirred water layer (UWL) to 25 µm. After the incubation, the sandwich was separated, and an aliquot of each donor and acceptor well was analyzed by RP-HPLC-UV ad MALDI-TOF MS.
# [6] = Stability of the shuttles in human serum; assay type: in vitro ADME; conditions: 400 µM, HBSS, 37 °C, 90% human serum, 24 h
# Experimental: Regarding to the stability study in human serum of the BBB-shuttle (examples 1, 2, 3 and 5), the peptides were incubated at a concentration of 400 µM in buffer HBSS at 37 °C in the presence of 90% human serum. At a range of times, 100 µL aliquots were collected to which methanol was added in order to precipitate the serum proteins. Samples were centrifuged, filtered and analyzed by HPLC-UV and MALDI-TOF MS to determine the degree of degradation of the BBB-shuttle. […] The half life of the derivative bearing a single disulfide bond was 3 h (examples 2), whereas that of the linear version was no more than 8 min.
# [7] = Evidences of active transport in the bovine cell model (NaN3 inhibition, saturation, 4 °C, abluminal-luminal); assay type: in vitro ADME; conditions: bovine; 200 µM, 37 °C, 2 h, abluminal compartment as donor
# Experimental: (§5) 1) NaN3 inhibition: Sodium azide (NaN3) is an inhibitor of the resipiratory pathway and, therefore, decreases energy-dependent processes such as transcytosis. […] 2) saturation: Three concentrations of the compound with SEQ ID NO9 were assayed following the procedure of the Example 28.
# (§6) The results are consistent with a saturable transport mechanism considering the plateau region has been reached at 100 µM. 3) dramatic decrease in permeability at reduced temperature: The procedure of the Example 28 was followed until the endothelial cells were confluent. To perform the experiment, the filters (transwells) were washed with Ringer-HEPES buffer. The abluminal compartment was filled with 800 µL of Ringer-HEPES and the luminal compartment was filled with 200 µL of the compound with SEQ ID NO 9 in Ringer-HEPES (200 µM). The system was incubated at 4 °C and 5 % CO2 for 2 h. […] The permeability at 4 °C is 0.23±0.04)·10^-6 cm/s, which is dramatically lower (P < 0.0001, unpaired t-test) than at 37 °C. This low transport is consistent with an energy-dependent process. 4) luminal-abluminal transport > abluminal-luminal transport.: The procedure of the Example 28 was followed until the endothelial cells were confluent. […] The abluminal compartment (in this experiment the donor) was filled with 800 µL of the compound with SEQ ID NO 9 in Ringer-HEPES (200 µM) and the luminal compartment (in this experiment the acceptor) with 200 µL Ringer-HEPES.
# [8] = system: bovine brain endothelial cells; experiment: as above; assay type: in vitro ADME; conditions: for Relative transport: saturation
# Experimental: as §5, §6
# [9] = Solubility limit in phosphate buffer saline (dosing solution); assay type: physicochemical; conditions: in 200 µL phosphate buffer saline
# Experimental: as §4
# [10] = system: human endothelial cells derived from hematopoietic stem cells; experiment: Transport across the BBB, in vitro human cell assay (co-culture, transwell); assay type: in vitro ADME; conditions: human cell model, 37 °C, Ringer-HEPES pH 7.4, 200 µM peptides, 25 nM Examples 22 and 23, 30 nM Example 24, 5 nM Example 25
# Experimental: (§7) Due to the great interest to know whether the cargo-BBB shuttle conjugates would be transported across human brain endothelial cells, some of the most relevant cargoes for therapy and diagnosis were assayed in a novel human-based BBB cell model. In this case, the co-culture method used was described by Cecchelli et al. (Cecchelli et al. PloS One. 2014. vol9. pp. e99733) and consists in seeding bovine pericytes in the bottom of a 12-well plate and human endothelial cells derived from hematopoietic stem cells on a transwell filter.
# (§8) The compound of interest was disolved or buffer-exhanged and diluted to the desired concentration.
# (§9) Cetuximab and cetuximab conjugates were radiolabelled to be assayed in the cell model. Pierce^(R) iodination beads were used following the instructions provided by the manufacturer.
# (§10) The apparent permeability was calculated using the same equation as for the bovine cell model.
# [11] = as above; assay type: in vitro ADME; conditions: human cell model, 37 °C, Ringer-HEPES pH 7.4, 200 µM peptides, 25 nM Examples 22 and 23, 30 nM Example 24, 5 nM Example 25, read-out: Papp (x 10^6)
# Experimental: as §7, §8, §9, §10
smiles,measurement,setting,value
"CC(C)C[C@@H]1NC(=O)[C@H](C)NC(=O)[C@H]([C@@H](C)O)NC(=O)[C@H](CCC(=O)O)NC(=O)[C@@H]2CCCN2C(=O)[C@H](C)NC(=O)[C@H](CCCCN)NC(=O)[C@@H]2CSSC[C@@H](C(=O)N[C@@H](CCC(N)=O)C(=O)N[C@@H](CCC(N)=O)C(=O)N[C@@H](Cc3cnc[nH]3)C(N)=O)NC(=O)[C@H](CCCNC(=N)N)NC(=O)[C@H](CCCNC(=N)N)NC(=O)[C@H](C)NC(=O)[C@H](CSSC[C@H](N)C(=O)N[C@@H](CC(N)=O)C(=O)N2)NC1=O [Comparative example 1, H-Cys-Asn-Cys-Lys-Ala-Pro-Glu-Thr- Ala-Leu-Cys-Ala-Arg-Arg-Cys-Gln-Gln-His-NH2, reference compound]",LD50,mice [1],50 nmol
same,Papp,[2],8 ± 1 nm/s
same,Transport (%) (2h),[3],0.9±0.2%
same,animals that died,mice [4]; 50 nmol in 200 µL,two
same,animals that showed convulsions during the first hours,mice [4]; 50 nmol in 200 µL,All the animals
"CC(C)C[C@@H]1NC(=O)[C@H](C)NC(=O)[C@H]([C@@H](C)O)NC(=O)[C@H](CCC(=O)O)NC(=O)[C@@H]2CCCN2C(=O)[C@H](C)NC(=O)[C@H](CCCCN)NC(=O)[C@@H]2CSSC[C@@H](C(=O)N[C@@H](Cc3c[nH]cn3)C(N)=O)NC(=O)[C@H](C)NC(=O)[C@H](C)NC(=O)[C@H](C)NC(=O)[C@H](CSSC[C@H](N)C(=O)N[C@@H](CC(N)=O)C(=O)N2)NC1=O [Example 1, H-Cys-Asn-Cys-Lys-Ala-Pro-Glu-Thr-Ala-Leu-Cys-Ala-Ala-Ala-Cys-His-NH2] (H-CNCKAPETALCAAACH-NH2; disulfide 1-11, 3-15)",Papp at 2 h,[2]; bovine,27 ± 3 nm/s
same,Transport (%) (2h),[3],3.2±0.3%
same,lethal parameters of the embryos,zebra fish (Danio rerio),None of the lethal parameters studied in the embrios treated with the compound with SEQ ID NO:9 was different from those treated with the vehicle
same,detection in PAMPA by HPLC-UV,[5],could not be detected
same,detection in PAMPA by MALDI-TOF MS,[5],only in two out of four replicates was found
same,degradation in human serum,[6],No degradation
same,animals that died,mice [4]; 1200 nmol in 200 µL,no animal
same,animals that showed any envenomation symptoms,mice [4]; 1200 nmol in 200 µL,no animal
same,"Papp B→A at 2 h, 200 µM",[7],10.6 ± 0.3 nm/s
same,permeability at 4 °C,"[8]; 200 µM, 4 °C, 5 % CO2, 2 h, luminal to abluminal",0.23±0.04 ·10^-6 cm/s
same,transport after NaN3 treatment,[8]; 30 min treatment with 1.5 mM sodium azide prior to the permeability assay,very significantly (p < 0.001) inhibited
same,Relative transport,[8]; concentration 100 µM,100±39
same,Relative transport,[8]; concentration 200 µM,110±6
same,Relative transport,[8]; concentration 500 µM,86±6
same,solubility limit,[9],~1200 nmol
"CC[C@H](C)[C@H](NC(=O)[C@H](CCC(=O)O)NC(=O)[C@@H](NC(=O)[C@H](CCC(N)=O)NC(=O)[C@H](CCCCN)NC(=O)[C@@H]1CC(=O)NC[C@H](N)C(=O)N[C@@H](CCCCN)C(=O)N[C@@H](C)C(=O)N2CCC[C@H]2C(=O)N[C@@H](CCC(=O)O)C(=O)N[C@@H]([C@@H](C)O)C(=O)N[C@@H](C)C(=O)N[C@@H](CC(C)C)C(=O)N1)[C@@H](C)CC)C(=O)N[C@@H](CCCCN)C(=O)N[C@@H](CCCCN)C(=O)N[C@@H](Cc1ccccc1)C(=O)N[C@@H](CCCCN)C(N)=O [Example 27, H-Dap-Lys-Ala-Pro-Glu-Thr-Ala-Leu-Asp-Lys-Gln-Ile-Glu-Ile-Lys-Lys-Phe-Lys-NH2] (H-[Dap]KAPETALDKQIEIKKFK-NH2; lactam 1-9)",Transport (%) (2h),[10],3.1±0.2%
same,Papp at 2 h,[11],19 ± 1 nm/s
